Experiment: Biotin interference in Elecsys TSH sandwich assay
Conditions: control reagent without anti-biotin antibody
Description: The control sample for the Elecsys TSH assay, PreciControl Universal 2 is spiked with rising concentrations of biotin (e.g. 0, 100 and 200 ng/mL final concentration of biotin). Reagent 2 of the Elecsys TSH sales kit containing the anti TSH detection-antibody is used in a unmodified version (control), and a modified version, additionally containing 300 μg/mL of an monoclonal anti Biotin antibody according to the invention. The sandwich assay is performed according to the routine assay protocol for the Elecsys TSH assay: Shortly, 50 μL of Sample (PreciControl Universal 2 with or without biotin) are incubated with 60 μL of Reagent 1 of the Elecsys TSH kit containing the biotinylated anti-TSH antibody and 50 μL of Reagent 2 containing the ruthenylated anti-TSH antibody with or without further addition of 300 μg/mL of the monoclonal anti Biotin antibody. After incubation at 37° C. for 9 min, 40 μL suspension of streptavidin coated magnetic beads of the Elecsys TSH kit are added, the reaction is incubated for another 9 min and finally the reaction mixture is aspirated into the measuring cell where the microparticles are magnetically captured onto the surface of the electrode. Unbound substances are then removed with ProCell. Application of a voltage to the electrode then induces electrochemiluminescense-based emission of light which is measured by a photomultiplier.

With `O=C(O)CCCC[C@@H]1SC[C@@H]2NC(=O)N[C@@H]21` [biotin, 5-[(3aS,4S,6aR)-2-oxo-1,3,3a,4,6,6a-hexahydrothieno[3,4-d]imidazol-4-yl]pentanoic acid] the “Signal relative to reference signal (sample without biotin)” value (100 ng/mL biotin in sample) was 53% and the “Signal relative to reference signal (sample without biotin)” value (200 ng/mL biotin in sample) was 16%.

Source: patent publication US12559573B2, “Biotin-specific monoclonal antibody and use thereof” (Roche Diagnostics Operations, Inc., priority 2016, dated 2026)
